Experimental data from ChEMBL document CHEMBL3351806, “Development of a novel, multifunctional, membrane-interactive pyridinium salt with potent anticancer activity” (Bioorg Med Chem Lett, 2014).
Activity calls are given as the source filed them. No cut-off for these calls is given here.

Key:
[1] = Induction of membrane disruption using DMPG lipid vesicles at 187.5 uM; format: functional
[2] = Induction of membrane disruption using DMPE lipid vesicles at 187.5 uM; format: functional
[3] = Induction of membrane disruption using DMPS lipid vesicles at 187.5 uM; format: functional
[4] = Induction of membrane disruption using DMPC lipid vesicles at 187.5 uM; format: functional
U-251 [5] = experiment: Induction of membrane disruption in human U251MG cells assessed as dye uptake at 200 to 500 uM by trypan blue exclusion assay; format: functional, cell-based
IN1528 [6] = experiment: Induction of membrane disruption in human IN1528 cells assessed as cell structure disruption at 1000 uM by trypan blue exclusion assay; format: functional, cell-based
IN1760 [7] = experiment: Induction of membrane disruption in human IN1760 cells assessed as dye uptake at 200 to 500 uM by trypan blue exclusion assay; format: functional, cell-based
IN1760 [8] = experiment: Induction of membrane disruption in human IN1760 cells assessed as cell structure disruption at 1000 uM by trypan blue exclusion assay; format: functional, cell-based
IN1472 [9] = experiment: Induction of membrane disruption in human IN1472 cells assessed as dye uptake at 200 to 500 uM by trypan blue exclusion assay; format: functional, cell-based
[10] = Antiproliferative activity against human IN1528 cells after 72 hrs by SRB method; format: functional, cell-based; conditions: IN1528, 72 h
IN1472 [11] = experiment: Induction of membrane disruption in human IN1472 cells assessed as cell structure disruption at 1000 uM by trypan blue exclusion assay; format: functional, cell-based
[12] = Antiproliferative activity against human U251MG cells after 72 hrs by SRB method; format: functional, cell-based; conditions: U-251, 72 h
[13] = Antiproliferative activity against human IN1760 cells after 72 hrs by SRB method; format: functional, cell-based; conditions: IN1760, 72 h
IN1528 [14] = experiment: Induction of membrane disruption in human IN1528 cells assessed as dye uptake at 200 to 500 uM by trypan blue exclusion assay; format: functional, cell-based
U-251 [15] = experiment: Induction of membrane disruption in human U251MG cells assessed as cell structure disruption at 1000 uM by trypan blue exclusion assay; format: functional, cell-based
[16] = Antiproliferative activity against human IN1472 cells after 72 hrs by SRB method; format: functional, cell-based; conditions: IN1472, 72 h

| SMILES | Activity [1] [%] | Activity [2] [%] | Activity [3] [%] | Activity [4] [%] | Activity (U-251 [5]) | Activity (IN1528 [6]) | Activity (IN1760 [7]) | Activity (IN1760 [8]) | Activity (IN1472 [9]) | EC50 [10] [µM] | Activity (IN1472 [11]) | EC50 [12] [µM] | EC50 [13] [µM] | Activity (IN1528 [14]) | Activity (U-251 [15]) | EC50 [16] [µM] |
| --- | --- | --- | --- | --- | --- | --- | --- | --- | --- | --- | --- | --- | --- | --- | --- | --- |
| CN(C(=O)c1ccncc1)c1ccncc1 | 30 | 34.9 | 23.3 | 34.1 | – | – | – | – | – | – | – | – | – | – | – | – |
| CCCCCCCCc1ccc(C(=O)N(C)c2ccc(CCCCCCCC)cc2)cc1 | 16.6 | 34.7 | 27.2 | 27.3 | – | – | – | – | – | – | – | – | – | – | – | – |
| CCCCCCCC[n+]1ccc(C(=O)N(C)c2cc[n+](CCCCCCCC)cc2)cc1 | 44.2 | 77.7 | 64.6 | 38.8 | Active | Active | Active | Active | Active | 9.8 | Active | 312 | 19.5 | Active | Active | 78 |
